Laboratory results taken from patent publication US20250154228A1, “HIGH-TRANSDERMAL-ABSORPTION PEPTIDE AND RECOMBINANT COLLAGEN CONSTRUCTED BY MEANS OF REPETITIONS OF PEPTIDE” (XI'AN GIANT BIOGENE TECHNOLOGY CO., LTD, priority 2022, published 2025).
Ends that are not written are not given here.

Test: 24 h transdermal penetration through mouse skin in vitro, single-chamber diffusion cell, BCA determination
Assay type: in vitro ADME, Kunming mice
Details: collagen peptides, 5 mg/ml in 0.9% NaCl, diffusion area 2.0 cm^2, 37.5° C., receiving solution after 24 h, BCA kit
Method: 10 Kunming mice of 20 to 22 g with half male and half […] were used in the experiment. After the mice were killed, the hairs on the abdomen were removed. Then the skin on the hair-removed area was peeled off, stripped of fat and grain, and rinsed repeatedly with distilled water. After being washed, the mouse skins were rinsed with normal saline, then treated with 10% glycerol, and stored at −20° C. for use (used up within 7 days).
Single-chamber diffusion cell: The effective diffusion area of the diffusion cell is 2.0 cm^2, the volume of the receiving cell is 14 ml, the length of the custom-made stirrer is 1.4 cm, and the receiving liquid is 0.9% NaCl solution.
The stored mouse skin was taken out, thawed, washed with normal saline, and sandwiched between the receiving chamber and the supplying chamber, with the medicated side facing the supplying chamber and the skin side facing the receiving chamber. The temperature of the water bath system was adjusted to 37.5° C., and the stirring speed was adjusted to 100 rpm/min. 0.9% NaCl solution pre-warmed at 37° C. was added to the receiving chamber and the air bubbles were exhausted. In order to reduce the interference, the inner surface of the mouse skin was firstly contacted with the receiving solution without medication and all the receiving solution was replaced. Then the 18 collagen peptides synthesized were prepared into 5 mg/ml solutions using 0.9% NaCl respectively, which were injected into the supplying chamber and firmly adhere to the mouse skin respectively. After 24 h, part of the receiving solution was absorbed with a syringe as the sample solution to determine the transdermal amount of collagen peptide.
The BCA kit method was used to determine the polypeptide content in the sample solution. […]

Sequence | 24 h penetration amount
GERGPPGPQGARGLPGTAGLP [compound 2] | 3697.14 µg
GPPGKNGDDGEAGKPGRPGER [compound 1] | 3041.21 µg
GKRGARGEPGPTGLPGPPGER [compound 5] | 3023.05 µg
GEQGVPGDLGAPGPSGARGER [compound 9] | 3341.78 µg
GERGVPGPPGAVGPAGKDGEA [compound 8] | 3113.64 µg
GERGGPGSRGFPGADGVAGPK [compound 6] | 3253.23 µg
GERGFPGERGVQGPPGPAGPR [compound 10] | 2992.77 µg
GERGRPGAPGPAGARGNDGAT [compound 4] | 3124.48 µg
GSPGENGAPGQMGPRGLPGER [compound 3] | 3213.66 µg
GVMGFPGPKGAAGEPGKAGER [compound 7] | 3389.09 µg

More lines, now with the values ahead:

24 h penetration amount | Sequence
4048.04 µg | GAPGAPGSQGAPGLQGMPGER [compound 13]
3111.47 µg | GPQGIAGQRGVVGLPGQRGER [compound 15]
3034.99 µg | GERGFPGLPGPSGEPGKQGPS [compound 16]
2994.13 µg | GDLGAPGPSGARGERGFPGER [compound 11]
3745.15 µg | GERGAAGLPGPKGDRGDAGPK [compound 14]
3308.22 µg | GERGPPGPMGPPGLAGPPGES [compound 18]
3498.56 µg | GLPGPSGEPGKQGPSGASGER [compound 17]
3103.23 µg | GERGVQGPPGPAGPRGANGAP [compound 12]
